Measurements: PMC3438169 (PLoS ONE, 2012)
Entries after “also recorded” stand apart in the source; their conditions may differ. *1 amine or outer side, *2 acyl side, *3 side chain or, on linkers, in order; H or OH if unused. Where a SMILES comes first, the peptide text is derived from it. [ ]: non-standard residue; d: D form. dAla(ψthiazole) = C[C@@H](N[*:1])c1nc(C(=O)[*:2])cs1; Trp(4-OMe) = COc1cccc2[nH]cc(C[C@H](N)C(=O)O)c12; dAbu = CC[C@@H](N)C(=O)O; Dha = C=C(N)C(=O)O; Sar = CNCC(=O)O

How the values were obtained:
[1] = test system: efflux-defective yeast strain (BYΔ8); assay: Yeast colony formation on ethanol/glycerol medium; assay type: cell-based, S. cerevisiae; settings: 0.1 µM argyrin B
Method: (§1) Strain BYΔ8 was incubated in 2.5% ethylmethanesulfonate until only 50% of the cells formed colonies. […] Amplifying the mutated MEF1 gene and transforming it into non-mutagenized BYΔ8 cells validated identified mutations in MEF1.

P. aeruginosa EF-G1 = biological target: T1, P. aeruginosa EF-G1 (Pseudomonas aeruginosa, UniProt Q9HWD2); assay: Surface plasmon resonance (SPR); assay type: binding
T1 construct: P. aeroginosa fusA1 encoding full-length EF-G was PCR amplified from pET28a-PaEFG-Nhis; made in house; host or cells: E. coli BL21 (DE3)
Source text: For wild type P. aeruginosa EF-G1 expression, the fusA gene was amplified from genomic DNA of P. aeruginosa PAO1 K767 using the primer pair EFG-F/EFG-R: […]/[…]. The product was digested with NdeI and HindIII and ligated into similarly digested pET28a to generate pET28a-PaEFG-Nhis. This plasmid was then used for site directed mutagenesis to introduce the nucleotide change encoding EF-G1S459F (pET28a-PaEFGS459F-Nhis). The plasmids were then transformed into an E. coli strain BL21 (DE3) for expression. A single colony was used to inoculate 10 ml LB broth containing 50 µg/ml kanamycin which was incubated at 37°C overnight, with shaking at 250 rpm. The overnight culture was then diluted 100-fold into 1 liter fresh LB broth containing 50 µg/ml kanamycin. After growing at 37°C with vigorous shaking for about 2.5 hours, expression of P. aeruginosa EF-G1 or EF-G1S459F was then induced by adding 0.1 mM IPTG, with further culture incubation at 18°C for 24 hours. Cells were then pelleted by centrifugation at 5,000 rpm with Sorvall SLC-6000 rotor and stored at −20°C. Cell pellets were then resuspended in 20 ml of BugBuster solution (Novagen) and incubated at room temperature for 20 minutes. […] The protein in the fractions was monitored by UV absorbance at 280 nm. […] Protein concentration was determined by Nano-drop spectrophotometer. […]

[2] = test system: cytochrome c oxidase subunit 2 (COX2); assay: Immunoblot of mitochondrial-encoded COX2 in HCT116 and RKO cells; assay type: cell-based, human; settings: 4 days
Method: (§2) Whole cell lysates were prepared using RIPA buffer (Cell Signaling Technology) supplemented with EDTA-free protease inhibitor cocktail (Roche Applied Science), cleared by centrifugation at 16,000× g for 10 min, normalized based on protein concentration (Bio-Rad protein assay), boiled in NuPAGE LDS sample buffer (Invitrogen) supplemented with 2% ß-mercaptoethanol, and separated on NuPAGE 4–12% Bis-Tris gels using MOPS running buffer (Invitrogen). Proteins were transferred to nitrocellulose membranes and probed with the following primary antibodies: rabbit polyclonal antibody against mEF-G1 (Sigma, HPA034765), rabbit monoclonal antibody against GAPDH (Cell Signaling Technology, 14C10), mouse monoclonal antibodies against COX2 (Invitrogen, A6404) or SDHA (MitoSciences, MS204). Immobilized primary antibodies were visualized using HRP-conjugated anti-rabbit or anti-mouse IgG (Millipore, AP307P and AP308P) and enhanced chemiluminescence (Pierce).

[3] = test system: succinate dehydrogenase flavoprotein subunit (SDHA); assay: Immunoblot of nuclear-encoded SDHA in HCT116 and RKO cells; assay type: cell-based, human; settings: 4 days
Method: as §2

[4] = test system: BYΔ8 strain with MEF1 mutations; assay: Yeast susceptibility determination, MEF1 mutants in BYΔ8 background; assay type: cell-based, S. cerevisiae; settings: Figure 2D: all argyrin B concentrations in the range tested
Method: Yeast strains used in this study are BY4741 [32] and strain BYΔ8, derived from BY4741 but deleted for eight genes involved in drug resistance (efflux pumps: snq2, pdr5, yor1; transcription factors: pdr1, pdr2, pdr3, yap1, yrm1). […] Starting OD600 was 0.1, total volume per well 120 µl. Plates were incubated at 30°C with 770 RPM orbital shaking.
as §1

T1 sequence (Q9HWD2 whole entry): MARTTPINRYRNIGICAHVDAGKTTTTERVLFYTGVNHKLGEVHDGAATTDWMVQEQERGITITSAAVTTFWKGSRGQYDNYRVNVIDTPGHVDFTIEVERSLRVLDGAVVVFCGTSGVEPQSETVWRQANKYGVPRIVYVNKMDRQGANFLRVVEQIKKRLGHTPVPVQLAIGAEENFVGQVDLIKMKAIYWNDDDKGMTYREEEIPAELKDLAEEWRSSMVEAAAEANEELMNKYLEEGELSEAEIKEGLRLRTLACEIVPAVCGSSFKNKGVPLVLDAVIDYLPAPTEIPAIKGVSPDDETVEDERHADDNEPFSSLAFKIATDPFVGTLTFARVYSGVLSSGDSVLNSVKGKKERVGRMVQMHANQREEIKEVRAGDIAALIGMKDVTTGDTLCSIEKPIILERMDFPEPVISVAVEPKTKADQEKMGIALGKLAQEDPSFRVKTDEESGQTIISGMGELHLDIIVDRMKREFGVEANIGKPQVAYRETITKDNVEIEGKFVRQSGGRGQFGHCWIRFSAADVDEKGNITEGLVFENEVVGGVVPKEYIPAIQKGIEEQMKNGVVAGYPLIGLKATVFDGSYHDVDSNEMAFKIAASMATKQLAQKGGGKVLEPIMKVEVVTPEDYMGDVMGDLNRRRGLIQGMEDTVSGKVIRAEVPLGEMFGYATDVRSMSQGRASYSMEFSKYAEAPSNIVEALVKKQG

## C=C1NC(=O)CN(C)C(=O)CNC(=O)[C@H](Cc2c[nH]c3cccc(OC)c23)NC(=O)[C@H](Cc2c[nH]c3ccccc23)NC(=O)c2csc(n2)[C@@H](C)NC(=O)[C@@H](CC)NC1=O [argyrin B] (cyclo([dAbu][dAla(ψthiazole)]W[Trp(4-OMe)]G[Sar][Dha]))
[1]
  Colony formation (in words): abolished colony formation
P. aeruginosa EF-G1
  Binding to purified P. aeruginosa EF-G (in words): bound purified P. aeruginosa EF-G tightly; also recorded: Very tight binding
[2]; HCT116, 1 µM argyrin B
  COX2 protein level (in words): depleted
[2]; RKO, 1 µM argyrin B
  COX2 protein level (in words): depleted
[3]; HCT116, 1 µM argyrin B
  SDHA protein level (in words): did not affect the levels
[3]; RKO, 1 µM argyrin B
  SDHA protein level (in words): did not affect the levels
[4]
  Inhibition of the wild-type (MEF1wt) strain (in words): full inhibiton of the wild-type strain
